Measurements as given in US20240409585A1, “MACROCYCLIC IMMUNOMODULATORS” (priority 2021, published 2024).
Numbered stars: 1 amine (or outer) side, 2 acyl side, 3 side chain; on linkers, the order of the positions; unused ones are H or OH. Bridge positions count the residues as written; N and C are the ends. Square brackets hold non-standard residues; d marks the D form. Peptide text beside a SMILES is read from it. * marks the point of attachment. ξ: configuration not given here. X44 = COc1cc(F)cc(-c2ccc(C[C@H](N[*:1])C(=O)[*:2])cc2)c1; Phe(3-allyloxy) = C=CCOc1cccc(C[C@H](N)C(=O)O)c1; Phe(4-COOH) = N[C@@H](Cc1ccc(C(=O)O)cc1)C(=O)O; Phe(4-CH2NH2) = NCc1ccc(C[C@H](N)C(=O)O)cc1; Bip = N[C@@H](Cc1ccc(-c2ccccc2)cc1)C(=O)O; Phe(3-Me) = Cc1cccc(C[C@H](N)C(=O)O)c1; Bta = N[C@@H](Cc1csc2ccccc12)C(=O)O; Val(3-OH) = CC(C)(O)[C@H](N)C(=O)O; 4Pal = N[C@@H](Cc1ccncc1)C(=O)O; pS = N[C@@H](COP(=O)(O)O)C(=O)O; Cha = N[C@@H](CC1CCCCC1)C(=O)O; Cit = NC(=O)NCCC[C@H](N)C(=O)O; Ile(3ξ) = CCC(C)[C@H](N)C(=O)O; Thr(3ξ) = CC(O)[C@H](N)C(=O)O; NMeNle = CCCC[C@H](NC)C(=O)O; Hpra = C#CCC[C@H](N)C(=O)O; dNle = CCCC[C@@H](N)C(=O)O; Carboxymethyl = O=C(O)C*; NMeA = CN[C@@H](C)C(=O)O; Nle = CCCC[C@H](N)C(=O)O; Orn = NCCC[C@H](N)C(=O)O; Dab = NCC[C@H](N)C(=O)O; Dap = NC[C@H](N)C(=O)O

These compounds were tested against T1, PE-labeled human PD-L1-Ig binding to Jurkat cell line over-expressing human PD-1 (Jurkat-PD-1) (Homo sapiens, UniProt Q15116) (assay: Jurkat-PD-1 Cell Binding High-Content Screening Assay (CBA): Method 1). Conditions: Jurkat-hPD-1 cells, PE-labeled PD-L1-Ig 20 nM final; read-out: Jurkat HPDL1 PD1 IC50 (uM) (Method 1).
T1 construct: expressed in transfected cells; host or cells: Jurkat
T1 sequence (Q15116 25-288): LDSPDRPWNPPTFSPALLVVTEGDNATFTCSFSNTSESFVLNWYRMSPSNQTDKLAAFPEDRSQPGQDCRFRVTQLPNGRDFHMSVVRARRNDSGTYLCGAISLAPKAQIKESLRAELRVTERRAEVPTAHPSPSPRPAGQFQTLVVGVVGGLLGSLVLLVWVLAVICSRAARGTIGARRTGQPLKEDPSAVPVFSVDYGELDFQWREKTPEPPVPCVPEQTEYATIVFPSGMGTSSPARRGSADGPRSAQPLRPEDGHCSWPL
With `CCC(C)[C@@H]1NC(=O)[C@H](Cc2ccc(-c3ccccc3)cc2)NC(=O)[C@H](C(C)C)NC(=O)[C@H](Cc2c[nH]c3ccccc23)NC(=O)[C@H](CC(=O)O)NC(=O)[C@H](Cc2ccc(O)cc2)NC(=O)[C@H](CC(N)=O)NC(=O)CSC[C@@H](C(=O)N[C@@H](CCCCN)C(N)=O)NC(=O)[C@H](C(C)O)NC(=O)[C@H](C(C)C)NC(=O)[C@H](CC2CCCCC2)NC(=O)[C@H](CCN)NC(=O)[C@@H](CC(C)C)NC(=O)[C@H](C)N(C)C1=O` (stereo partly drawn) [Compound 2079] ({CH2CO}-NYDWV[Bip][Ile(3ξ)][NMeA][dL][Dab][Cha]V[Thr(3ξ)]CK-NH2; thioether N-14) the IC50 was 0.02 µM. In the case of `CC(C)C[C@@H]1NC(=O)[C@H](Cc2c[nH]c3ccccc23)NC(=O)[C@H](COP(=O)(O)O)NC(=O)[C@H](Cc2ccc(O)cc2)NC(=O)[C@H](Cc2ccccc2)NC(=O)CSC[C@@H](C(=O)N[C@@H](C)C(N)=O)NC(=O)[C@H](CO)NC(=O)[C@H](C(C)C)NC(=O)[C@H](CC(C)C)NC(=O)[C@H](CC(N)=O)NC(=O)[C@@H](C)NC(=O)[C@H](C)N(C)C(=O)[C@H](C(C)C)NC(=O)[C@H](Cc2ccc(-c3ccccc3)cc2)NC1=O` [Compound 1821] ({CH2CO}-FY[pS]WL[Bip]V[NMeA][dA]NLVSCA-NH2; thioether N-14), the IC50 was 0.49 µM. `Cc1cccc(C[C@@H]2NC(=O)[C@H](CC(=O)O)NC(=O)[C@H](Cc3ccc(C(=O)O)cc3)NC(=O)[C@H](Cc3ccc(OCC(=O)O)cc3)NC(=O)CSC[C@@H](C(N)=O)NC(=O)[C@H](CO)NC(=O)[C@H](C(C)C)NC(=O)[C@H](CC(C)C)NC(=O)[C@H](Cc3c[nH]cn3)NC(=O)[C@@H](CC(C)C)NC(=O)[C@H](C)N(C)C(=O)[C@H](C(C)C)NC(=O)[C@H](Cc3ccc(-c4ccccc4)cc3)NC(=O)[C@H](Cc3ccc(CN)cc3)NC2=O)c1` [Compound 1876] ({CH2CO}-Y(Carboxymethyl)[Phe(4-COOH)]D[Phe(3-Me)][Phe(4-CH2NH2)][Bip]V[NMeA][dL]HLVSC-NH2; thioether N-14) was tested, and the IC50 was 0.34 µM. `C#CCC[C@H](NC(=O)[C@H](CCCN)NC(=O)[C@@H]1CSCC(=O)N[C@@H](Cc2ccncc2)C(=O)N[C@@H](Cc2ccc(OCC(=O)O)cc2)C(=O)N[C@@H](CC(=O)O)C(=O)N[C@@H](Cc2cccc(C)c2)C(=O)N[C@@H](C(C)C)C(=O)N[C@@H](Cc2ccc(-c3ccccc3)cc2)C(=O)N[C@@H](C(C)C)C(=O)N(C)[C@@H](C)C(=O)N[C@H](CC(C)C)C(=O)N[C@@H](CCN)C(=O)N[C@@H](CC2CCCCC2)C(=O)N[C@@H](C(C)C)C(=O)N[C@@H]([C@@H](C)O)C(=O)N1)C(N)=O` [Compound 1878] ({CH2CO}-[4Pal]Y(Carboxymethyl)D[Phe(3-Me)]V[Bip]V[NMeA][dL][Dab][Cha]VTC[Orn][Hpra]-NH2; thioether N-14) was tested, and the IC50 was 0.01 µM. Work on `CC(C)C[C@@H]1NC(=O)[C@H](CC(N)=O)NC(=O)[C@@H](CC(C)C)NC(=O)[C@H](C)N(C)C(=O)[C@H](C(C)C)NC(=O)[C@H](Cc2ccc(-c3ccccc3)cc2)NC(=O)[C@H](CCN)NC(=O)[C@H](Cc2c[nH]c3ccccc23)NC(=O)[C@H](CC(=O)O)NC(=O)[C@H](Cc2ccc(O)cc2)NC(=O)[C@H](Cc2ccccc2)NC(=O)CSC[C@@H](C(=O)N[C@@H](C)C(N)=O)NC(=O)[C@H](CO)NC(=O)[C@H](CC(=O)O)NC1=O` [Compound 2026] ({CH2CO}-FYDW[Dab][Bip]V[NMeA][dL]NLDSCA-NH2; thioether N-14) yielded an IC50 of 0.12 µM. Compound `CC(C)C[C@@H]1NC(=O)[C@H](Cc2c[nH]c3ccccc23)NC(=O)[C@H](CC(=O)O)NC(=O)[C@H](Cc2ccc(C(=O)O)cc2)NC(=O)[C@H](Cc2ccc(OCC(=O)O)cc2)NC(=O)CSC[C@@H](C(=O)N[C@@H](CO)C(N)=O)NC(=O)[C@H](CO)NC(=O)[C@H](C(C)C)NC(=O)[C@H](CC2CCCCC2)NC(=O)[C@H](CCN)NC(=O)[C@@H](CC(C)C)NC(=O)[C@H](C)N(C)C(=O)[C@H](C(C)C)NC(=O)[C@H](Cc2ccc(-c3ccccc3)cc2)NC1=O` [Compound 1913] ({CH2CO}-Y(Carboxymethyl)[Phe(4-COOH)]DWL[Bip]V[NMeA][dL][Dab][Cha]VSCS-NH2; thioether N-14) has an IC50 of 0.01 µM. Work on `CCCC[C@H]1NC(=O)[C@H](C)N(C)C(=O)[C@H](C(C)C)NC(=O)[C@H](Cc2ccc(-c3ccccc3)cc2)NC(=O)[C@H](CC(C)C)NC(=O)[C@H](Cc2c[nH]c3ccccc23)NC(=O)[C@H](CC(=O)O)NC(=O)[C@H](Cc2ccc(O)cc2)NC(=O)[C@H](Cc2ccccc2)NC(=O)CSC[C@@H](C(=O)N[C@@H](C)C(N)=O)NC(=O)[C@H](CO)NC(=O)[C@H](C(C)C)NC(=O)[C@H](CC(C)C)NC(=O)[C@H](CC(N)=O)NC1=O` [Compound 1753] ({CH2CO}-FYDWL[Bip]V[NMeA][dNle]NLVSCA-NH2; thioether N-14) yielded an IC50 of 0.03 µM. `CC(C)C[C@@H]1NC(=O)[C@H](CCN)NC(=O)[C@H](Cc2csc3ccccc23)NC(=O)[C@H](C)N(C)C(=O)[C@H](CCCN)NC(=O)[C@H](Cc2ccc(-c3ccccc3)cc2)NC(=O)[C@H](C(C)C)NC(=O)[C@H](Cc2c[nH]c3ccccc23)NC(=O)[C@H](CC(=O)O)NC(=O)[C@H](Cc2ccc(O)cc2)NC(=O)[C@H](Cc2ccccc2)NC(=O)CSC[C@@H](C(=O)N[C@@H](C)C(N)=O)NC(=O)[C@H]([C@@H](C)O)NC(=O)[C@H](C(C)C)NC1=O` [Compound 1122] ({CH2CO}-FYDWV[Bip][Orn][NMeA][Bta][Dab]LVTCA-NH2; thioether N-14) showed an IC50 of 0.24 µM. With `C=CCOc1cccc(C[C@@H]2NC(=O)[C@H](Cc3ccccc3)NC(=O)CSC[C@@H](C(=O)N[C@@H](C)C(N)=O)NC(=O)[C@H](CO)NC(=O)[C@H](C(C)C)NC(=O)[C@H](CC(C)C)NC(=O)[C@H](CC(N)=O)NC(=O)[C@@H](C)NC(=O)[C@H](C)N(C)C(=O)[C@H](C(C)C)NC(=O)[C@H](Cc3ccc(-c4ccccc4)cc3)NC(=O)[C@H](CC(C)C)NC(=O)[C@H](Cc3c[nH]c4ccccc34)NC(=O)[C@H](CC(=O)O)NC2=O)c1` [Compound 1772] ({CH2CO}-F[Phe(3-allyloxy)]DWL[Bip]V[NMeA][dA]NLVSCA-NH2; thioether N-14) the IC50 was 0.04 µM. With `CCCC[C@@H]1NC(=O)[C@H](Cc2ccc(-c3ccccc3)cc2)NC(=O)[C@H](C(C)C)NC(=O)[C@H](Cc2c[nH]c3ccccc23)NC(=O)[C@H](CC(=O)O)NC(=O)[C@H](Cc2ccc(C(=O)O)cc2)NC(=O)[C@H](Cc2ccncc2)NC(=O)CSC[C@@H](C(=O)N[C@@H](CC(N)=O)C(N)=O)NC(=O)[C@H](CO)NC(=O)[C@H](C(C)C)NC(=O)[C@H](CC2CCCCC2)NC(=O)[C@H](CCN)NC(=O)[C@@H](C)NC(=O)[C@H](CCCC)N(C)C1=O` [Compound 2089] ({CH2CO}-[4Pal][Phe(4-COOH)]DWV[Bip][Nle][NMeNle][dA][Dab][Cha]VSCN-NH2; thioether N-14) the IC50 was 0.05 µM. In the case of `CC(C)C[C@@H]1NC(=O)[C@H](CCN)NC(=O)[C@@H](CC(C)C)NC(=O)[C@H](C)N(C)C(=O)[C@H](CCCNC(N)=O)NC(=O)[C@H](Cc2ccc(-c3ccccc3)cc2)NC(=O)[C@H](C(C)C)NC(=O)[C@H](Cc2c[nH]c3ccccc23)NC(=O)[C@H](CC(=O)O)NC(=O)[C@H](Cc2ccc(C(=O)O)cc2)NC(=O)[C@H](Cc2ccc(OCC(=O)O)cc2)NC(=O)CSC[C@@H](C(=O)N[C@@H](C)C(N)=O)NC(=O)[C@H]([C@@H](C)O)NC(=O)[C@H](C(C)C)NC1=O` [Compound 1573] ({CH2CO}-Y(Carboxymethyl)[Phe(4-COOH)]DWV[Bip][Cit][NMeA][dL][Dab]LVTCA-NH2; thioether N-14), the IC50 was 0.05 µM. `CC(C)C[C@@H]1NC(=O)[C@H](Cc2c[nH]c3ccccc23)NC(=O)[C@H](CC(=O)O)NC(=O)[C@H](Cc2ccncc2)NC(=O)[C@H](CN)NC(=O)CSC[C@@H](C(=O)NCC(N)=O)NC[C@H](CO)NC(=O)[C@H](C(C)C)NC(=O)[C@H](CC2CCCCC2)NC(=O)[C@H](CC(N)=O)NC(=O)[C@@H](CC(C)C)NC(=O)[C@H](C)N(C)C(=O)[C@H](C(C)C)NC(=O)[C@H](Cc2ccc(-c3ccccc3)cc2)NC1=O` [Compound 1625] gave an IC50 of 0.01 µM. `Cc1cccc(C[C@@H]2NC(=O)[C@H](CC(=O)O)NC(=O)[C@H](Cc3ccc(OCC(=O)O)cc3)NC(=O)[C@H](Cc3ccncc3)NC(=O)CSC[C@@H](C(=O)N[C@@H](CCN)C(N)=O)NC(=O)[C@H](CO)NC(=O)[C@H](C(C)(C)O)NC(=O)[C@H](CC3CCCCC3)NC(=O)[C@H](CCN)NC(=O)[C@@H](CC(C)C)NC(=O)[C@H](C)N(C)C(=O)[C@H](Cc3ccc(OCC(=O)O)cc3)NC(=O)[C@H](Cc3ccc(-c4ccccc4)cc3)NC(=O)[C@H](Cc3ccc(OCC(=O)O)cc3)NC2=O)c1` [Compound 2135] ({CH2CO}-[4Pal]Y(Carboxymethyl)D[Phe(3-Me)]Y(Carboxymethyl)[Bip]Y(Carboxymethyl)[NMeA][dL][Dab][Cha][Val(3-OH)]SC[Dab]-NH2; thioether N-14) was tested, and the IC50 was 0.01 µM. `COc1cc(F)cc(-c2ccc(C[C@@H]3NC(=O)[C@H](C(C)C)NC(=O)[C@H](Cc4c[nH]c5ccccc45)NC(=O)[C@H](CC(=O)O)NC(=O)[C@H](Cc4ccc(O)cc4)NC(=O)[C@H](CC(N)=O)NC(=O)CSC[C@@H](C(=O)N[C@@H](C)C(N)=O)NC(=O)[C@H]([C@@H](C)O)NC(=O)[C@H](C(C)C)NC(=O)[C@H](CC(C)C)NC(=O)[C@H](CCN)NC(=O)[C@@H](CC(C)C)NC(=O)[C@H](C)N(C)C(=O)[C@H](CCCNC(=N)N)NC3=O)cc2)c1` [Compound 1223] ({CH2CO}-NYDWV[X44]R[NMeA][dL][Dab]LVTCA-NH2; thioether N-14) showed an IC50 of 0.32 µM. Work on `Cc1cccc(C[C@@H]2NC(=O)[C@H](CC(=O)O)NC(=O)[C@H](Cc3ccc(OCC(=O)O)cc3)NC(=O)[C@H](CN)NC(=O)CSC[C@@H](C(N)=O)NC(=O)[C@H](CCC(=O)O)NC(=O)[C@H](C(C)C)NC(=O)[C@H](CC3CCCCC3)NC(=O)[C@H](CCN)NC(=O)[C@@H](CC(C)C)NC(=O)[C@H](C)N(C)C(=O)[C@H](Cc3ccc(OCC(=O)O)cc3)NC(=O)[C@H](Cc3ccc(-c4ccccc4)cc3)NC(=O)[C@H](Cc3ccc(OCC(=O)O)cc3)NC2=O)c1` [Compound 1651] ({CH2CO}-[Dap]Y(Carboxymethyl)D[Phe(3-Me)]Y(Carboxymethyl)[Bip]Y(Carboxymethyl)[NMeA][dL][Dab][Cha]VEC-NH2; thioether N-14) yielded an IC50 of 0.1 µM.
